Results reported in patent US20150192565A1, “METHOD FOR EVALUATING THERAPEUTIC EFFECT OF T[…] APPLICATION THEREOF” (NATIONAL TAIWAN UNIVERSITY, priority 2014, published 2015).

Assays:
HCC [1] = details: adjuvant therapy after surgical resection; placebo 33%; cited from earlier work
HCC [2] = assay: Thalidomide as adjuvant therapy after curative resection for HCC, HCC recurrence by LHX4 expression group (Kaplan-Meier); type: in vivo, human; details: for HCC recurrence rate (%) / Number of HCC recurrence patients: three-year
Protocol: Samples of liver tissue were obtained from 48 patients, who suffered HCC at stage II or III (defined by American Joint Committee on Cancer, AJCC) and underwent curative resection for the HCC. All of the patients were enrolled within 4 weeks after surgery. 27 of the patients received Thalidomide 200 mg/day and the others received a placebo 200 mg/day for 12 months or until HCC recurrence.
The sample of liver tissue from each patient includes tumorous tissue and non-tumorous tissue neighboring the tumorous tissue. The respective Lhx4 proteins in the tumorous and non-tumorous tissues of each patient were detected using western blot and then quantified by ImageJ software (published by the National Institutes of Health of United States of America). The quantified results of the Lhx4 proteins in the tumorous and non-tumorous tissues were respectively normalized based on the quantified results of β-actin in the tumorous and non-tumorous tissues of the corresponding patient to obtain the (protein) expression levels of the LHX4 gene in the tumorous and non-tumorous tissues of the patient.
For each and every patient, the expression level of the LHX4 gene in the tumorous tissue (called “T” hereinafter) was divided by the expression level of the LHX4 gene in the non-tumorous tissue (called “NT” hereinafter) to obtain a T/NT ratio, which represents the decreasing magnitude of the expression level of the LHX4 gene in the tumorous tissue when compared with the non-tumorous tissue.
In an embodiment, the correlation between the decreasing magnitude of the expression level of the LHX4 gene in the tumorous tissue of a patient and the therapeutic effect of Thalidomide on the liver cancer of the patient is indicated by the HCC recurrence of the patient. Specifically, the end date of observation of a patient's HCC recurrence is set as the date three years after the surgery for the liver cancer.
In an embodiment, the 48 patients were divided into two groups according the T/NT ratio to evaluate the therapeutic effect of Thalidomide on the patients. […]
Each of FIGS. 2A, 2B and 2C show the respective 3-year HCC recurrence-free survival days (from the date that the patient underwent the surgery for the liver cancer to the date of observing the HCC recurrence of the patient) of the patients, where the event in the curves is the first HCC recurrence of a patient after the surgery.
In an embodiment, for each of the 48 patients, the LHX4 expression level in the tumorous tissue was obtained through normalizing the quantified result of the western blot of the Lhx4 protein of the tumorous tissue based on a specific amount of β-actin in the tumorous tissue. After the normalization, the LHX4 expression levels in the tumorous tissue of all the patients, normalized by the same amount of β-actin, were obtained. […] Each of FIGS. 3A, 3B and 3C show the respective 3-year HCC recurrence-free survival days (from the date that the patient underwent the surgery for the liver cancer to the date of observing the HCC recurrence of the patient) of the patients, where the event of the curves is the first HCC recurrence in a patient after the surgery.

[3] = T/NT ratio < 0.2, 13 total patients
[4] = T/NT ratio ≧ 0.2, 14 total patients

For `O=C1CCC(N2C(=O)c3ccccc3C2=O)C(=O)N1` (racemic) [Thalidomide, (RS)-2-(2,6-dioxopiperidin-3-yl)-1H-isoindole-1,3(2H)-dione], the “two-year HCC recurrence-free survival rate” value (HCC [1]) is given as 65%, the “mean 3-year HCC recurrence-free survival days, lower group compared with higher group” value (HCC [2]; groups divided by arithmetic average of LHX4 expression levels in tumorous tissue, patients receiving Thalidomide) is given as “obviously delayed” and the “mean 3-year HCC recurrence-free survival days” value (HCC [2]; higher group, LHX4 expression level in tumorous tissue not lower than 0.17 (median), 14 patients, FIG. 3B/3C, P=0.567 vs placebo (535 days)) is given as 466 days. For the same compound, the “mean 3-year HCC recurrence-free survival days” value (HCC [2]; higher group, T/NT ratio not lower than 0.2, Thalidomide 200 mg/day, 14 patients, FIG. 1B/1C, P=0.687 vs placebo (535 days)) was 521 days, the “mean 3-year HCC recurrence-free survival days” value (HCC [2]; higher group, T/NT ratio not lower than 0.5, 5 patients, FIG. 2B/2C, P=0.272 vs placebo (493 days)) was 344 days and the “mean 3-year HCC recurrence-free survival days” value (HCC [2]; lower group, LHX4 expression level in tumorous tissue lower than 0.17 (median), 13 patients, FIG. 3A/3C, P=0.033 vs placebo (526 days)) was 833 days. The “mean 3-year HCC recurrence-free survival days” value (HCC [2]; lower group, T/NT ratio lower than 0.2, Thalidomide 200 mg/day, 13 patients, FIG. 1A/1C, P=0.06 vs placebo (526 days)) was 744 days, the “mean 3-year HCC recurrence-free survival days” value (HCC [2]; lower group, T/NT ratio lower than 0.5, 22 patients, FIG. 2A/2C, P=0.2 vs placebo (545 days)) was 711 days and the “HCC recurrence rate (%)” value (HCC [2]; [3]) was 38.5%. For the same compound, the “Number of HCC recurrence patients” value (HCC [2]; [3]) was 5, the “HCC recurrence rate (%)” value (HCC [2]; [4]) was 85.7% and the “Number of HCC recurrence patients” value (HCC [2]; [4]) was 12.
